# From US4599228A, “Antimicrobial agent” (Vipont Laboratories, Inc., priority 1984, dated 1986)
# “Also recorded” adds a separate entry of the source. Where two headings read alike, the source gives them in different places.
# How the values were obtained:
# Bacillus subtilis = test: Mean inactivating dose in vitro; type: cell-based; settings: per ml of media
# Experimental: (§1) In order to illustrate the antimicrobial effectiveness of the composition according to the present invention, a series of in vitro and in vivo tests were performed.
# Escherichia coli [1] = test: Mean inactivating dose in vitro; type: cell-based; settings: per ml of media
# Experimental: as §1
# Klebsiella pneumoniae = test: Mean inactivating dose in vitro; type: cell-based; settings: per ml of media
# Experimental: as §1
# Proteus vulgaris = test: Mean inactivating dose in vitro; type: cell-based; settings: per ml of media
# Experimental: as §1
# Pseudomonas aeruginosa = test: Mean inactivating dose in vitro; type: cell-based; settings: per ml of media
# Experimental: as §1
# Saccharomyces cerevisiae = test: Mean inactivating dose in vitro; type: cell-based; settings: per ml of media
# Experimental: as §1
# Staphylococcus aureus [2] = test: Mean inactivating dose in vitro; type: cell-based; settings: per ml of media
# Experimental: as §1
# Streptococcus faecalis = test: Mean inactivating dose in vitro; type: cell-based; settings: per ml of media
# Experimental: as §1
# Streptococcus mutans [3] = test: Mean inactivating dose in vitro; type: cell-based; settings: per ml of media
# Experimental: as §1
# [4] = tested on: gingivitis, plaque and pocket depth in dogs; test: Oral Clinical Studies - Beagles (dogs); type: in vivo, beagle dogs; set-up: Mean Gingivitis Scores / Mean Plaque Scores: scale not given here; settings: for Mean Gingivitis Scores / Mean Plaque Scores / Mean Pocket Depths / gingivitis, activity in words / return of dental plaque, activity in words: beagles; for Mean Gingivitis Scores / Mean Plaque Scores / Mean Pocket Depths: 0.1% sanguinarine chloride and/or 2.7% zinc chloride; for gingivitis, activity in words / return of dental plaque, activity in words: four weeks of treatment
# Experimental: The dogs were treated topically once daily with the respective test formulation.
# microorganisms = test: General antimicrobial activity in vitro; type: cell-based
# Source text: When zinc chloride was replaced with a fluoride salt in the present preparations, the activity of the preparation against microorganisms believed to be associated with the causation of dental caries and periodontal disease (Streptococcus mutans), as well as other microorganisms, remained identical.
# infection = test: In vivo antimicrobial action and tolerability (clinical studies)
# fungi and protozoa = settings: in solution; cited from earlier work
# Candida albicans = test: Inhibitory concentration in vitro, separate test; type: cell-based
# Experimental: (§2) A separate test was conducted to determine the inhibitory concentration of sanguinarine chloride alone. These concentrations, for microorganisms in vitro, are as follows: […]
# Escherichia coli [5] = test: Inhibitory concentration in vitro, separate test; type: cell-based
# Experimental: as §2
# Staphylococcus aureus [6] = test: Inhibitory concentration in vitro, separate test; type: cell-based
# Experimental: as §2
# Streptococcus mutans [7] = test: Inhibitory concentration in vitro, separate test; type: cell-based
# Experimental: as §2
# [8] = tested on: plaque forming microorganisms freshly collected from human dental plaque; test: Dental plaque reduction in vitro; type: cell-based
# [9] = tested on: dental plaque / plaque forming microorganisms; test: In vivo plaque, gingivitis and periodontal disease treatment of dogs and humans
# [10] = 0 (start), baseline, topical once daily
# [11] = after 4 weeks, topical once daily, untreated 0.91
# [12] = after 4 weeks, topical once daily, untreated 1.458
# [13] = after 4 weeks, topical once daily, untreated 12.408
structure (smiles),measurement,setting,value
"[Cl-].[Cl-].[Zn+2] [Zinc chloride, zinc chloride, reference compound]",Mean inactivating dose,Bacillus subtilis,"25,000 μg/ml"
same,Mean inactivating dose,Escherichia coli [1],"6,250 μg/ml"
same,Mean inactivating dose,Klebsiella pneumoniae,"3,125 μg/ml"
same,Mean inactivating dose,Proteus vulgaris,"12,500 μg/ml"
same,Mean inactivating dose,Pseudomonas aeruginosa,"3,500 μg/ml"
same,Mean inactivating dose,Saccharomyces cerevisiae,"6,250 μg/ml"
same,Mean inactivating dose,Staphylococcus aureus [2],"6,250 μg/ml"
same,Mean inactivating dose,Streptococcus faecalis,"25,000 μg/ml"
same,Mean inactivating dose,Streptococcus mutans [3],"1,563 μg/ml"
same,Mean Gingivitis Scores,[4]; [10],0.44
same,Mean Plaque Scores,[4]; [10],8.76
same,Mean Pocket Depths,[4]; [10],1.46
same,Mean Gingivitis Scores,[4]; [11],0.75
same,Mean Pocket Depths,[4]; [12],1.37
same,Mean Plaque Scores,[4]; [13],10.15
same,"gingivitis, activity in words",[4],slightly active
same,"return of dental plaque, activity in words",[4],slightly preventive
same,antimicrobial properties,microorganisms,antimicrobial properties only in high concentrations
same,speed of action in vivo,infection,slow acting in vivo as an antimicrobial agent
same,tissue damage / undesirable side effects,infection; concentrations required for antimicrobial action,"caused blanching of tissue and, in some cases, chemical burns and other tissue damage"
C[n+]1cc2c3c(ccc2c2ccc4cc5c(cc4c21)OCO5)OCO3 [sanguinarine],antifungal and antiprotozoan properties,fungi and protozoa,some antifungal and antiprotozoan properties
"C[n+]1cc2c3c(ccc2c2ccc4cc5c(cc4c21)OCO5)OCO3 [Sanguinarine chloride, sanguinarine chloride]",MIC,Candida albicans,100 µg/mL
same,MIC,Escherichia coli [5],100 µg/mL
same,MIC,Staphylococcus aureus [6],10 µg/mL
same,MIC,Streptococcus mutans [7],50 µg/mL
same,"comparison with chlorhexidine (Hibitane), inhibition of plaque forming microorganisms",[8],compared favorably in vitro to chlorhexidine
same,reduction of dental plaque,[8]; 25 micrograms per milliliter,100%
same,effect against plaque forming microorganisms in vivo,[9]; in vivo,ineffective against plaque forming microorganisms
same,"effect on dental plaque, gingivitis and periodontal disease","[9]; repeated or continuous treatment of affected area, dogs and humans",did not reduce dental plaque or alleviate the symptoms of gingivitis or periodontal disease; also recorded: did not prevent the accumulation of dental plaque on teeth or prevent the occurrence of periodontal disease
same,Mean Gingivitis Scores,[4]; [10],0.495
same,Mean Plaque Scores,[4]; [10],8.885
same,Mean Pocket Depths,[4]; [10],1.415
same,"plaque and gingivitis scores, rank among groups","[4]; 24 male beagle dogs, after four weeks, topical once daily",highest
same,Mean Gingivitis Scores,[4]; [11],0.942
same,Mean Pocket Depths,[4]; [12],1.48
same,Mean Plaque Scores,[4]; [13],12.89
same,"gingivitis, activity in words",[4],no activity in vivo at all
same,"return of dental plaque, activity in words",[4],not active in vivo
same,antimicrobial properties,microorganisms,strong antimicrobial properties
same,antimicrobial properties,microorganisms; listed as sanguinarine chloride,quite effective against microorganisms
same,in vivo effectiveness / antimicrobial action,infection,"only slightly effective or not at all; also recorded: only slightly antimicrobial, very slow acting, or had no effect on the course of the infection at all"
COc1ccc2c(c[n+](C)c3c4cc5c(cc4ccc23)OCO5)c1OC [chelerythrine chloride],antimicrobial properties,microorganisms,strong antimicrobial properties
